Measurements as given in patent publication US11833251B2, “Pharmaceutical methods and compositions” (THE UNIVERSITY OF SUSSEX, priority 2018, dated 2023).
Values after ≈ are worked out from the molar mass of the structure shown.

Assay: Saturation solubility test of propranolol in various solvents at 37° C.
Format: physicochemical

CC(C)NCC(O)COc1cccc2ccccc12 (centres unmarked) [Propranolol, propranolol]
Mean concentration (mg/ml) ± SD (propranolol in Kolliphor EL, 37° C., n = 3): 1.32 ± 0.00 mg/mL | Mean concentration (mg/ml) ± SD (propranolol in Tween 20, 37° C., n = 3): 1.86 ± 0.00 mg/mL | Mean concentration (mg/ml) ± SD (propranolol in Tween 80, 37° C., n = 3): 1.89 ± 0.01 mg/mL | solubility thermodynamic (propranolol in Water, 37° C., n = 3, read-out: Mean concentration (mg/ml) ± SD): 29.03 ± 0.12 mg/mL (≈ 112 mM) | Inference (solubility of propranolol in Kolliphor EL): Slightly soluble | Inference (solubility of propranolol in Tween 20): Slightly soluble | Inference (solubility of propranolol in Tween 80): Slightly soluble | Inference (solubility of propranolol in Water): Sparingly soluble
